Measured values reported in PubChem BioAssay AID2060343 (Molecular Pharmacology Branch, DTP, NCI, 2025).

Test system: 138582-337-R-J1-PDC spheroids with HUVEC/MSC, viability
Assay: Anticancer human tumor 138582-337-R-J1-PDC patient-derived Merkel cell tumor cell line growth inhibition [IpAb]
Conditions: for IC50: curve of first compound; for viability, T/C: stronger effect = lower value
Summary of the method: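 Multi-cell spheroids of 60% tumour cells, 25% HUVEC and 15% MSC in ultra-low-attachment U-bottom wells, treated with agents combined with ipatasertib or abemaciclib. Half-log ranges top out near clinical Cmax, or 10 microM when Cmax is unknown.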

[1] = second compound 0.1 µM, first compound 0.0316 µM
[2] = second compound 0.1 µM, first compound 0.1 µM
[3] = second compound 0.1 µM, first compound 0.316 µM
[4] = second compound 0.1 µM, first compound 1 µM
[5] = second compound 0.1 µM, first compound 3.16 µM
[6] = second compound 0.1 µM, first compound 10 µM
[7] = second compound 0.316 µM, first compound 0.0316 µM
[8] = second compound 0.316 µM, first compound 0.1 µM
[9] = second compound 0.316 µM, first compound 0.316 µM
[10] = second compound 0.316 µM, first compound 1 µM
[11] = second compound 0.316 µM, first compound 3.16 µM
[12] = second compound 0.316 µM, first compound 10 µM
[13] = second compound 1 µM, first compound 0.0316 µM
[14] = second compound 1 µM, first compound 0.1 µM
[15] = second compound 1 µM, first compound 0.316 µM
[16] = second compound 1 µM, first compound 1 µM
[17] = second compound 1 µM, first compound 3.16 µM
[18] = second compound 1 µM, first compound 10 µM
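Note: spheroids exposed to compounds for seven days.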
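Throughout, for viability, T/C: 100% = DMSO vehicle control viability.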

## Cn1ncc(Cl)c1-c1cc(C(=O)NC(CN)Cc2cccc(F)c2)sc1Cl (stereo not given) + CC(C)NCC(C(=O)N1CCN(c2ncnc3c2C(C)CC3O)CC1)c1ccc(Cl)cc1
Second compound 0.1 µM
  IC50: 3.04 µM
Second compound 0.316 µM
  IC50: 3.8 µM
Second compound 1 µM
  IC50: 3.32 µM
Second compound 3.16 µM
  IC50: 3.41 µM
Second compound 10 µM
  IC50: 0.686 µM
[1]
  viability, T/C: 89.4%
[2]
  viability, T/C: 83%
[3]
  viability, T/C: 75.9%
[4]
  viability, T/C: 61.4%
[5]
  viability, T/C: 57.4%
[6]
  viability, T/C: 0.26%
[7]
  viability, T/C: 80.7%
[8]
  viability, T/C: 67.3%
[9]
  viability, T/C: 74.2%
[10]
  viability, T/C: 64.8%
[11]
  viability, T/C: 61.5%
[12]
  viability, T/C: 0.25%
[13]
  viability, T/C: 71.7%
[14]
  viability, T/C: 73.1%
[15]
  viability, T/C: 75.7%
[16]
  viability, T/C: 55.7%
[17]
  viability, T/C: 56.8%
[18]
  viability, T/C: 0.23%
Second compound 3.16 µM, first compound 0.0316 µM
  viability, T/C: 60.5%
Second compound 3.16 µM, first compound 0.1 µM
  viability, T/C: 62%
Second compound 3.16 µM, first compound 0.316 µM
  viability, T/C: 55.9%
Second compound 3.16 µM, first compound 1 µM
  viability, T/C: 58%
Second compound 3.16 µM, first compound 3.16 µM
  viability, T/C: 53.6%
Second compound 3.16 µM, first compound 10 µM
  viability, T/C: 0.23%
Second compound 10 µM, first compound 0.0316 µM
  viability, T/C: 53.1%
Second compound 10 µM, first compound 0.1 µM
  viability, T/C: 45.6%
Second compound 10 µM, first compound 0.316 µM
  viability, T/C: 51.8%
Second compound 10 µM, first compound 1 µM
  viability, T/C: 50.8%
Second compound 10 µM, first compound 3.16 µM
  viability, T/C: 44.6%
Second compound 10 µM, first compound 10 µM
  viability, T/C: 0.3%

## C=CCn1c(=O)c2cnc(Nc3ccc(N4CCN(C)CC4)cc3)nc2n1-c1cccc(C(C)(C)O)n1 + CCN1CCN(Cc2ccc(Nc3ncc(F)c(-c4cc(F)c5nc(C)n(C(C)C)c5c4)n3)nc2)CC1
Second compound 0.01 µM
  IC50: > 10 µM
Second compound 0.0316 µM
  IC50: > 10 µM
Second compound 0.1 µM
  IC50: > 10 µM
Second compound 0.316 µM
  IC50: > 10 µM
Second compound 1 µM
  IC50: > 10 µM
Second compound 0.01 µM, first compound 0.0316 µM
  viability, T/C: 105%
Second compound 0.01 µM, first compound 0.1 µM
  viability, T/C: 95.3%
Second compound 0.01 µM, first compound 0.316 µM
  viability, T/C: 100%
Second compound 0.01 µM, first compound 1 µM
  viability, T/C: 90.4%
Second compound 0.01 µM, first compound 3.16 µM
  viability, T/C: 117%
Second compound 0.01 µM, first compound 10 µM
  viability, T/C: 141%
Second compound 0.0316 µM, first compound 0.0316 µM
  viability, T/C: 106%
Second compound 0.0316 µM, first compound 0.1 µM
  viability, T/C: 99.5%
Second compound 0.0316 µM, first compound 0.316 µM
  viability, T/C: 90.9%
Second compound 0.0316 µM, first compound 1 µM
  viability, T/C: 99.1%
Second compound 0.0316 µM, first compound 3.16 µM
  viability, T/C: 101%
Second compound 0.0316 µM, first compound 10 µM
  viability, T/C: 133%
[1]
  viability, T/C: 91.4%
[2]
  viability, T/C: 98.7%
[3]
  viability, T/C: 91.7%
[4]
  viability, T/C: 90.3%
[5]
  viability, T/C: 116%
[6]
  viability, T/C: 141%
[7]
  viability, T/C: 86.4%
[8]
  viability, T/C: 96.2%
[9]
  viability, T/C: 87.6%
[10]
  viability, T/C: 94.1%
[11]
  viability, T/C: 116%
[12]
  viability, T/C: 144%
[13]
  viability, T/C: 102%
[14]
  viability, T/C: 109%
[15]
  viability, T/C: 101%
[16]
  viability, T/C: 105%
[17]
  viability, T/C: 114%
[18]
  viability, T/C: 134%

## Cn1cnc2c(F)c(Nc3ccc(Br)cc3Cl)c(C(=O)NOCCO)cc21 + CCN1CCN(Cc2ccc(Nc3ncc(F)c(-c4cc(F)c5nc(C)n(C(C)C)c5c4)n3)nc2)CC1
Second compound 0.01 µM
  IC50: > 3 µM
Second compound 0.0316 µM
  IC50: > 3 µM
Second compound 0.1 µM
  IC50: > 3 µM
Second compound 0.316 µM
  IC50: > 3 µM
Second compound 1 µM
  IC50: 1.88 µM
Second compound 0.01 µM, first compound 0.00949 µM
  viability, T/C: 102%
Second compound 0.01 µM, first compound 0.03 µM
  viability, T/C: 94.5%
Second compound 0.01 µM, first compound 0.0949 µM
  viability, T/C: 75.3%
Second compound 0.01 µM, first compound 0.3 µM
  viability, T/C: 81.2%
Second compound 0.01 µM, first compound 0.949 µM
  viability, T/C: 94%
Second compound 0.01 µM, first compound 3 µM
  viability, T/C: 93.1%
Second compound 0.0316 µM, first compound 0.00949 µM
  viability, T/C: 94.8%
Second compound 0.0316 µM, first compound 0.03 µM
  viability, T/C: 91%
Second compound 0.0316 µM, first compound 0.0949 µM
  viability, T/C: 67.1%
Second compound 0.0316 µM, first compound 0.3 µM
  viability, T/C: 79.6%
Second compound 0.0316 µM, first compound 0.949 µM
  viability, T/C: 86.8%
Second compound 0.0316 µM, first compound 3 µM
  viability, T/C: 88.3%
Second compound 0.1 µM, first compound 0.00949 µM
  viability, T/C: 102%
Second compound 0.1 µM, first compound 0.03 µM
  viability, T/C: 88.2%
Second compound 0.1 µM, first compound 0.0949 µM
  viability, T/C: 78.3%
Second compound 0.1 µM, first compound 0.3 µM
  viability, T/C: 68.7%
Second compound 0.1 µM, first compound 0.949 µM
  viability, T/C: 76.9%
Second compound 0.1 µM, first compound 3 µM
  viability, T/C: 73.1%
Second compound 0.316 µM, first compound 0.00949 µM
  viability, T/C: 88.8%
Second compound 0.316 µM, first compound 0.03 µM
  viability, T/C: 90.8%
Second compound 0.316 µM, first compound 0.0949 µM
  viability, T/C: 83%
Second compound 0.316 µM, first compound 0.3 µM
  viability, T/C: 66%
Second compound 0.316 µM, first compound 0.949 µM
  viability, T/C: 72.9%
Second compound 0.316 µM, first compound 3 µM
  viability, T/C: 56.3%
Second compound 1 µM, first compound 0.00949 µM
  viability, T/C: 96.1%
Second compound 1 µM, first compound 0.03 µM
  viability, T/C: 90.2%
Second compound 1 µM, first compound 0.0949 µM
  viability, T/C: 78%
Second compound 1 µM, first compound 0.3 µM
  viability, T/C: 74.5%
Second compound 1 µM, first compound 0.949 µM
  viability, T/C: 73.1%
Second compound 1 µM, first compound 3 µM
  viability, T/C: 37.1%
